Experimental data reported in patent publication US20120003156A1, “METHODS FOR TREATING NEOPLASIA BY INHIBITING LACTATE DEHYDROGENASE AND/OR NICOTINAMIDE PHOSPHORIBOSYLTRANSFERASE” (The Johns Hopkins University, priority 2008, published 2012).
Entries after “also recorded” stand apart in the source; their conditions may differ.

Key:
c-Myc = assay: Western blot of c-Myc; type: cell-based, human; conditions: 30 μM FX11, 24 hours
P493 cells [1] = assay: Lactate production and glucose utilization, ABL700 Radiometer analyzer; type: cell-based, human
Description: Lactate production was measured by the ABL700 Radiometer analyzer according to the manufacturer's instructions. 10^5 cells were grown at 37° C. in a 5% CO2, 95% air incubator and treated with 9 μM FX11 or 0.5 nM FK866 for 24 hours.

P493 cells [2] = assay: ROS measurement by DCFDA flow cytometry; type: cell-based, human; conditions: 9 μM FX11 or FK866, 24 hours
Description: The measurement of intracellular ROS production was measured by staining cells with 5-(and-6)-carboxy-2′,7′-dichlorodihydrofluorescein diacetate (carboxy-H2DCFDA; Molecular Probes) according to the manufacturer's instructions. 10^5 cells/ml were treated with 9 μM FX11 or FK866 for 24 hours. Stained cells were analyzed in FACScan flow cytometers (BD Bioscience).

LDH = LDH (Homo sapiens, UniProt P00338); assay: LDH activity, decrease in absorbance at 340 nm of NADH; type: biochemical
Description: In other studies, pyruvate and NADH were used as the substrates to test the inhibition of LDH by FX11. […] To further document the selective binding of FX11 versus E to LDHA, affinity chromatography was performed with P493 cell lysate using FX11 or E immobilized on Sepharose beads. […] GAPDH is another pivotal glycolytic enzyme that converts NAD^+ to NADH. The question of whether FX11 could inhibit its NAD^+-dependent conversion of glyceraldehyde-3-phosphate to bis-phosphoglycerate was addressed.

[3] = tested on: human pancreatic cell line E3LZ10.7; assay: Cell growth; type: cell-based
LDHA = LDHA (Homo sapiens, UniProt P00338); conditions: cited from earlier work
P493 cells [4] = assay: Conversion of 13C-glucose to 13C-lactate; type: cell-based, human
Description: In addition to oxidative stress induced by inhibition of LDHA, it was determined how FX11 affects cellular energy metabolism. […].

[5] = Side effects, hematology and blood chemistry in treated animals
GAPDH = GAPDH (Homo sapiens, UniProt P04406); assay: GAPDH activity and Ki; type: biochemical
Description: The reaction velocity of purified human LDHA or GAPDH was determined by a decrease or increase in absorbance at 340 nm of NADH, respectively. […] The GADPH activity was assessed using the protocol described in Worthington Enzyme Manual: http://www.worthington-biochem.com/GAPD/assay.html with varying concentrations of NAD^+. Ki values were determined from double-reciprocal plots by linear regression analysis using SigmaPlot Enzyme Kinetic software.

P493 cells [6] = assay: NADH/NAD+ ratio colorimetric assay; type: cell-based, human; conditions: 9 μM FX11, 24 hours
Description: The NADH/NAD^+ ratios were assayed using EnzyChrom™ NADH/NAD^+ colorimetric Assay Kit, from BioAssay Systems. This assay is based on an enzyme-catalyzed kinetic reaction where a tetrazolium dye 3-[4,5-dimethylthiazol-2-yl]-2,5-diphenyltetrazolium bromide (MTT) is reduced by NADH in the presence of phenazine methosulfate (PMS). The intensity of the reduced product color, measured at 565 nm, is proportionate to the NADH/NAD^+ concentration in the sample. […] After washing with cold PBS, cells were homogenized in 100 μl of NAD^+ or NADH extraction buffer. Following heat extract at 60° C. for 5 minutes, the assay was performed according to the manufacturer's instructions.

[7] = tested on: Ramos Burkitt lymphoma cells; assay: Cell population growth; type: cell-based, human
[8] = tested on: human pancreatic cell line P10; assay: Cell growth; type: cell-based
P493 cells [9] = assay: Mitochondrial membrane potential by JC-1 flow cytometry; type: cell-based, human; conditions: 9 μM FX11 or/and FK866, 24 hours
Description: The lipophilic cation dye (5,5′,6,6′-tetrachloro-1,1′,3,3′-tetraethylbenzimidazolcarbocyanine iodide, JC-1) (Invitrogen) was used to detect the loss of the mitochondrial membrane potential. The negative charge established by the intact mitochondrial membrane potential lets the lipophilic dye stain the mitochondria bright red which emits in channel 2 (FL2). When the mitochondrial membrane potential collapses, JC-1 remains in the cytoplasm in a green fluorescent monomeric emission in channel 1 (FL1). JC-1 reversibly changes its color from green to orange as membrane potentials increase (over values of 80-100 mV). 10^5 cells/ml were treated with 9 μM FX11 or/and FK866 for 24 hours. Stained cells were analyzed in FACScan flow cytometers (BD Bioscience).

AMP kinase (AMPK) = assay: Immunoblot of phospho-AMPK; type: cell-based, human; conditions: 20 hours of exposure
[10] = tested on: P198 human pancreatic cancer xenografts; assay: Human P198 pancreatic cancer xenograft; type: in vivo, athymic nu mice; conditions: treatment from 200 mm^3; daily IP 42 μg FX11; compared with E
Description: The animal studies were performed according to the protocols approved by the Animal Care and Use Committee at Johns Hopkins University. In order to generate tumorigenesis study in xenograft model, 2.0×10^7 P493 human lymphoma B cells or 5×10^6 human pancreatic cancer cells were injected subcutaneously into male SCID mice (NCI) or athymic Hsd: RH-Foxn1nu mice (Harlan), respectively, as previously described (Feldmann et al., 2007; Gao et al., 2009; Gao et al., 2007). When the tumor volume reached 200 mm^3, groups of 5 mice were injected with control 2% DMSO or 42 μg FX11 and/or 100 μg FK866. The tumor volumes were measured using a digital caliper after 4, 7 and 10 days of treatment. Tumor volumes were calculated using the following formula: [length (mm)×width (mm)×width (mm)×0.52]. The entire experiment was repeated seven times.

Chain of GAPDH (P04406 whole entry): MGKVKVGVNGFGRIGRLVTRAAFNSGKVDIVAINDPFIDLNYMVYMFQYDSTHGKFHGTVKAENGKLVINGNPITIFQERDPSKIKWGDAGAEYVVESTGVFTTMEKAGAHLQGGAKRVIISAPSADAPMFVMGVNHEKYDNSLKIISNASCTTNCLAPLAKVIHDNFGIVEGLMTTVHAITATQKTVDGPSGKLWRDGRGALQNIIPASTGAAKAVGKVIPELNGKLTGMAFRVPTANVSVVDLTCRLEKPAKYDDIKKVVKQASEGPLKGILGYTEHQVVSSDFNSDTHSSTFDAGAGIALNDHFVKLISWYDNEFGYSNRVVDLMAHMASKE

With `CCCc1c(O)c(O)c(C(=O)O)c2cc(Cc3ccccc3)c(C)cc12` [FX11, 2,3-dihydroxy-6-methyl-7-(phenylmethyl)-4-propylnaphthalene-1-carboxylic acid] the c-Myc levels (c-Myc) was “does not affect c-Myc levels”, the “cellular production of lactate” value (P493 cells [1]; 9 μM FX11, 24 hours) was “significantly diminished” and the glucose utilization (P493 cells [1]; FX11 treatment for 24 hours) was “reduction of glucose utilization”. The ROS production (P493 cells [2]) was “increased”, the “slope of decrease in absorbance at 340 nm” value (LDH; 6 μM FX11, −0.084 without FX11) was −0.029 and the LDH activity (LDH; 6 μM, pyruvate and NADH as substrates) was “completely abrogated”. For the same compound, the “concentration inhibiting LDH activity in the conversion of lactate to pyruvate” value (LDH; lactate to pyruvate direction) was 34 µM, the growth inhibition [3] was “dose-dependent manner” and the “selectivity LDHA versus LDHB or pLDH” value (LDHA) was “preferentially inhibited LDHA as opposed to LDHB or pLDH”. For the same compound, the 13C-glutamate (P493 cells [4]) was “increase”, the “conversion of 13C-glucose to 13C-lactate” value (P493 cells [4]) was “reduced” and the “kidney (BUN, creatinine) or liver (aspartate aminotransferase, alanine aminotransferase, alkaline phosphatase) toxicity by blood chemistries” value ([5]; doses that affected tumor growth in vivo) was “did not reveal any evidence”. The “hematology (cytopenia)” value ([5]; single agent, five animals studied) was “no cytopenia”, the body weight ([5]; treated animals) was “did not lose weight” and the “lethargy, ability to eat and drink” value ([5]; treated animals) was “no lethargy or the inability to eat and drink”. For the same compound, the GAPDH activity (GAPDH; 74 μM) was “not inhibited”, the Ki (GAPDH; GAPDH, Michaelis-Menten kinetics, estimated) was over 300 µM and the “NADH/NAD+ ratio” value (P493 cells [6]) was “increase”. The “cell population growth inhibition” value [7] was “sensitive to FX11 inhibition in a manner that is diminished by glucose withdrawal; also recorded: dose-dependent manner”, the growth inhibition [8] was “dose-dependent manner” and the mitochondrial membrane potential (P493 cells [9]) was “decreased”. The “AMP kinase (AMPK) activation” value (AMP kinase (AMPK)) was “activation” and the “tumor growth of P198 pancreatic tumor xenografts” value [10] was “significant response; also recorded: effectively inhibited”.
